Values after ≈ are worked out from the molar mass of the structure shown.
Key:
Staphylococcus aureus [1] = assay: Antibacterial activity against Staphylococcus aureus ATCC 25923 assessed as bacterial growth inhibition incubated for 24 hrs by resazurin based microdilution assay; format: functional
[2] = target: T1, Quinolone resistance protein NorA (Staphylococcus aureus) (UniProt P0A0J7); assay: Potentiation of EtBr-induced inhibition of NorA efflux in Staphylococcus aureus 1199B overexpressing NorA assessed as reduction in EtBr MIC at 256 ug/ml incubated for 24 hrs by resazurin based assay (Rvb= 32 ug/ml); settings: dose 256.0 µg/ml
T1 sequence (whole entry): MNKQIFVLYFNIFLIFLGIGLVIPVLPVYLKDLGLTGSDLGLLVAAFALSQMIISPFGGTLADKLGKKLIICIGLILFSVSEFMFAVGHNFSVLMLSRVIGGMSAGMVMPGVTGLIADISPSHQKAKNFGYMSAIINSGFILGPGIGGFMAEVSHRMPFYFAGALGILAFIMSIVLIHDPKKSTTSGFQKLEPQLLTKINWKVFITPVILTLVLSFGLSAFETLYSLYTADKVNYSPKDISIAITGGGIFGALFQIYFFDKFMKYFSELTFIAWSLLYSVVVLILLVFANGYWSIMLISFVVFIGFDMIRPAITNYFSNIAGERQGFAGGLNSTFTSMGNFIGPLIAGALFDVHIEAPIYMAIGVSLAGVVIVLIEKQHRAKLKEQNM

Staphylococcus aureus [3] = assay: Antibacterial activity against norfloxacin resistant Staphylococcus aureus 1199B overexpressing NorA assessed as bacterial growth inhibition incubated for 24 hrs by resazurin based microdilution assay; format: functional
Candida albicans = assay: Antifungal activity against Candida albicans NEWP031 assessed as bacterial growth inhibition incubated for 24 hrs by resazurin based microdilution assay; format: functional
Escherichia coli [4] = assay: Antibacterial activity against Escherichia coli ATCC […] assessed as bacterial growth inhibition incubated for 24 hrs by resazurin based microdilution assay; format: functional
Staphylococcus aureus [5] = assay: Antibacterial activity against Staphylococcus aureus SA10 assessed as bacterial growth inhibition incubated for 24 hrs by resazurin based microdilution assay; format: functional
Staphylococcus aureus [6] = assay: Antibacterial activity against Staphylococcus aureus 1199 assessed as bacterial growth inhibition incubated for 24 hrs by resazurin based microdilution assay; format: functional
[7] = target: T1, Quinolone resistance protein NorA (Staphylococcus aureus); settings: 1199B, dose 128.0 µg/ml, time 24.0 hrs
Escherichia coli [8] = assay: Potentiation of gentamicin-induced antibacterial activity against Escherichia coli 06 assessed as gentamicin MIC at 1/8 times of MIC (Rvb= 322 ug/ml); format: functional
[9] = target: T1, Quinolone resistance protein NorA (Staphylococcus aureus); assay: Potentiation of EtBr-induced inhibition of NorA efflux pump in Staphylococcus aureus 1199B overexpressing NorA efflux pump assessed as reduction in EtBr MIC at 1/8 times of MIC by resazurin based assay (Rvb= 512 ug/ml)
Staphylococcus aureus [10] = assay: Antibacterial activity against norfloxacin resistant Staphylococcus aureus 1199 assessed as bacterial growth inhibition; format: functional
Staphylococcus aureus [11] = assay: Antibacterial activity against norfloxacin resistant Staphylococcus aureus 1199B overexpressing NorA assessed as bacterial growth inhibition; format: functional
Staphylococcus aureus [12] = assay: Antibacterial activity against Staphylococcus aureus IS-58 overexpressing TetK efflux protein assessed as bacterial growth inhibition incubated for 24 hrs by resazurin based microdilution assay; format: functional
Staphylococcus aureus [13] = assay: Antibacterial activity against Staphylococcus aureus 1199B overexpressing NorA efflux protein assessed as bacterial growth inhibition incubated for 24 hrs by resazurin based microdilution assay; format: functional
Staphylococcus aureus [14] = assay: Antibacterial activity against Staphylococcus aureus K4100 overexpressing qacC gene assessed as bacterial growth inhibition incubated for 24 hrs by resazurin based microdilution assay; format: functional
[15] = target: T1, Quinolone resistance protein NorA (Staphylococcus aureus); settings: 1199B
Staphylococcus aureus [16] = assay: Antibacterial activity against Staphylococcus aureus RN4220 overexpressing […] efflux protein assessed as bacterial growth inhibition incubated for 24 hrs by resazurin based microdilution assay; format: functional
Staphylococcus aureus [17] = assay: Antibacterial activity against Staphylococcus aureus K2068 overexpressing mepA gene assessed as bacterial growth inhibition incubated for 24 hrs by resazurin based microdilution assay; format: functional
Staphylococcus aureus [18] = assay: Antibacterial activity against wild type Staphylococcus aureus ATCC 25923 assessed as bacterial growth inhibition incubated for 24 hrs by resazurin based microdilution assay; format: functional
Staphylococcus aureus [19] = assay: Antibacterial activity against Staphylococcus aureus K4414 overexpressing qacA/B gene assessed as bacterial growth inhibition incubated for 24 hrs by resazurin based microdilution assay; format: functional
[20] = target: T1, Quinolone resistance protein NorA (Staphylococcus aureus); assay: Potentiation of ciprofloxacin-mediated inhibition of NorA efflux pump in Staphylococcus aureus 1199B overexpressing NorA efflux pump assessed as reduction in ciprofloxacin MIC (Rvb= […] ug/ml)
Staphylococcus aureus [21] = assay: Antibacterial activity against norfloxacin resistant Staphylococcus aureus IS-58 overexpressing TetK efflux pump gene assessed as bacterial growth inhibition incubated for 24 hrs by CLSI protocol based microdilution method; format: functional
Staphylococcus aureus [22] = assay: Antibacterial activity against norfloxacin resistant Staphylococcus aureus 1199B overexpressing NorA efflux pump gene assessed as bacterial growth inhibition incubated for 24 hrs by CLSI protocol based microdilution method; format: functional
Staphylococcus aureus [23] = assay: Antibacterial activity against norfloxacin resistant Staphylococcus aureus RN4220 overexpressing […] efflux pump gene assessed as bacterial growth inhibition incubated for 24 hrs by CLSI protocol based microdilution method; format: functional
[24] = target: T1, Quinolone resistance protein NorA (Staphylococcus aureus); assay: Potentiation of EtBr-induced inhibition of NorA efflux pump in Staphylococcus aureus 1199B overexpressing NorA efflux pump assessed as reduction in EtBr MIC at 1/8 times of MIC incubated for 24 hrs by resazurin based broth microdilution method (Rvb= 32 ug/ml)
[25] = target: T1, Quinolone resistance protein NorA (Staphylococcus aureus); assay: Potentiation of EtBr-induced inhibition of NorA efflux pump in Staphylococcus aureus 1199A assessed as reduction in EtBr MIC at 1/8 times of MIC incubated for 24 hrs by resazurin based broth microdilution method (Rvb=32 ug/ml)
Staphylococcus aureus [26] = assay: Antibacterial activity against norfloxacin resistant Staphylococcus aureus 1199 assessed as bacterial growth inhibition incubated for 24 hrs by resazurin based broth microdilution method; format: functional
[27] = target: T1, Quinolone resistance protein NorA (Staphylococcus aureus); assay: Potentiation of norfloxacin-induced inhibition of NorA efflux pump in Staphylococcus aureus 1199A assessed as reduction in norfloxacin MIC at 1/8 times of MIC incubated for 24 hrs by resazurin based broth microdilution method (Rvb= […] ug/ml)
[28] = target: T1, Quinolone resistance protein NorA (Staphylococcus aureus); assay: Potentiation of norfloxacin-induced inhibition of NorA efflux pump in Staphylococcus aureus 1199B overexpressing NorA efflux pump assessed as reduction in norfloxacin MIC at 1/8 times of MIC incubated for 24 hrs by resazurin based broth microdilution method (Rvb= 128 ug/ml)
Staphylococcus aureus [29] = assay: Antibacterial activity against norfloxacin resistant Staphylococcus aureus 1199B overexpressing NorA assessed as bacterial growth inhibition incubated for 24 hrs by resazurin based broth microdilution method; format: functional
Staphylococcus aureus [30] = assay: Antibacterial activity against methicillin-resistant Staphylococcus aureus 1199B overexpressing NorA gene assessed as bacterial growth inhibition; format: functional
Staphylococcus aureus [31] = assay: Synergistic antibacterial activity against Staphylococcus aureus 1199B overexpressing NorA gene assessed as fractional inhibitory concentration index at 2 ug/ml in presence of norfloxacin; format: functional; settings: dose 2 µg/ml
Staphylococcus aureus [32] = assay: Antibacterial activity against Staphylococcus aureus RN4220 assessed as bacterial growth inhibition incubated for 18 hrs by MTT assay; format: functional
Staphylococcus aureus [33] = assay: Antibacterial activity against Staphylococcus aureus EMRSA-15 assessed as bacterial growth inhibition incubated for 18 hrs by MTT assay; format: functional
Staphylococcus aureus [34] = assay: Antibacterial activity against Staphylococcus aureus ATCC25923 assessed as bacterial growth inhibition incubated for 18 hrs by MTT assay; format: functional
[35] = target: T1, Quinolone resistance protein NorA (Staphylococcus aureus); settings: 1199B, dose 64.0 µg/ml
Staphylococcus aureus [36] = assay: Synergistic antibacterial activity against Staphylococcus aureus 1199B overexpressing NorA assessed as fractional Inhibitory concentration index at 64 ug/ml in presence of norfloxacin by broth dilution method; format: functional; settings: dose 64 µg/ml
Staphylococcus aureus [37] = assay: Antibacterial activity against Staphylococcus aureus EMRSA-16 assessed as bacterial growth inhibition incubated for 18 hrs by MTT assay; format: functional
Staphylococcus aureus [38] = assay: Antibacterial activity against tetracycline-resistant Staphylococcus aureus XU212 assessed as bacterial growth inhibition incubated for 18 hrs by MTT assay; format: functional
Staphylococcus aureus [39] = assay: Antibacterial activity against Staphylococcus aureus 1199B overexpressing NorA assessed as bacterial growth inhibition incubated for 18 hrs by MTT assay; format: functional

## CC(C)CCCC(C)CCO (centres undefined)
Staphylococcus aureus [1]
  MIC: ≥ 1020 µg/mL
[2]
  MIC: 16 µg/mL
Staphylococcus aureus [3]
  MIC: ≥ 1020 µg/mL
Candida albicans
  MIC: 2050 µg/mL (≈ 12900 µM)
Escherichia coli [4]
  MIC: 2050 µg/mL (≈ 12900 µM)
Staphylococcus aureus [5]
  MIC: ≥ 1020 µg/mL
Staphylococcus aureus [6]
  MIC: ≥ 1020 µg/mL
[7]
  MIC: 32 µg/mL (≈ 202 µM)

## C[C@H]1[C@H](C)CC[C@]2(C)CC[C@]3(C)C(=CC[C@@H]4[C@@]5(C)CC[C@H](O)C(C)(C)[C@@H]5CC[C@]43C)[C@H]12
Escherichia coli [8]
  MIC: 203 µg/mL
[9]
  MIC: 406 µg/mL

## CC1=CCC(C(C)C)CC1 (centres undefined)
Staphylococcus aureus [10]
  MIC: > 1020 µg/mL
Staphylococcus aureus [11]
  MIC: > 1020 µg/mL

## COc1ccc(/C=C/C(=O)c2cc(O)c(O)c(OC)c2)cc1OC
Staphylococcus aureus [12]
  MIC: 100 µg/mL (≈ 303 µM)
Staphylococcus aureus [13]
  MIC: 100 µg/mL (≈ 303 µM)
Staphylococcus aureus [14]
  MIC: 100 µg/mL (≈ 303 µM)
[15]
  MIC: 16 µg/mL (≈ 48.4 µM)
Staphylococcus aureus [16]
  MIC: 100 µg/mL (≈ 303 µM)
Staphylococcus aureus [17]
  MIC: 100 µg/mL (≈ 303 µM)
Staphylococcus aureus [18]
  MIC: 100 µg/mL (≈ 303 µM)
Staphylococcus aureus [19]
  MIC: 100 µg/mL (≈ 303 µM)

## CC(/C=C/C(=O)N1CCCC1)=C\c1ccc2c(c1)CCC(C)O2 (centres undefined)
[20]
  MIC: 3.12 µg/mL

## CCOC(=O)/C=C/C(C)=C/c1ccc2c(c1)CCC(C)(C)O2
[20]
  MIC: 3.12 µg/mL

## C=C1CCC2CC1C2(C)C (stereo not drawn) [BETA-PINENE]
Staphylococcus aureus [10]
  MIC: > 1020 µg/mL
Staphylococcus aureus [11]
  MIC: > 1020 µg/mL

## O=C(O)/C=C/c1ccc(O)c(O)c1 [CAFFEIC ACID]
Staphylococcus aureus [21]
  MIC: 1020 µg/mL (≈ 5680 µM)
Staphylococcus aureus [22]
  MIC: 1020 µg/mL (≈ 5680 µM)
Staphylococcus aureus [23]
  MIC: 1020 µg/mL (≈ 5680 µM)

## Cc1ccc(C(C)C)cc1O [CARVACROL]
[24]
  MIC: 16 µg/mL
[25]
  MIC: 25.4 µg/mL
Staphylococcus aureus [26]
  MIC: 256 µg/mL (≈ 1700 µM)
[27]
  MIC: 32 µg/mL
[28]
  MIC: 64 µg/mL
Staphylococcus aureus [29]
  MIC: 256 µg/mL (≈ 1700 µM)

## COc1cc(-c2cc(=O)c3c(O)cc(O)cc3o2)ccc1O [CHRYSOERIOL]
Staphylococcus aureus [30]
  MIC: 256 µg/mL (≈ 853 µM)
Staphylococcus aureus [31]
  fractional inhibitory concentration index (FICI): 0.266

## O=C(O)c1cc(O)c(O)c(O)c1 [GALLIC ACID]
Staphylococcus aureus [21]
  MIC: 1020 µg/mL (≈ 6020 µM)
Staphylococcus aureus [22]
  MIC: 1020 µg/mL (≈ 6020 µM)
Staphylococcus aureus [23]
  MIC: 1020 µg/mL (≈ 6020 µM)

## O=c1c(-c2ccc(O)cc2)coc2cc(O)cc(O)c12 [GENISTEIN]
Staphylococcus aureus [32]
  MIC: 32 µg/mL (≈ 118 µM)
Staphylococcus aureus [33]
  MIC: 32 µg/mL (≈ 118 µM)
Staphylococcus aureus [34]
  MIC: 32 µg/mL (≈ 118 µM)
[35]
  MIC: 16 µg/mL (≈ 59.2 µM)
Staphylococcus aureus [36]
  fractional inhibitory concentration index (FICI): 0.38
Staphylococcus aureus [37]
  MIC: 8 µg/mL (≈ 29.6 µM)
Staphylococcus aureus [38]
  MIC: 32 µg/mL (≈ 118 µM)
Staphylococcus aureus [39]
  MIC: 32 µg/mL (≈ 118 µM)

## CC(C)=CCC/C(C)=C\CO [NEROL]
Staphylococcus aureus [1]
  MIC: ≥ 1020 µg/mL
[2]
  MIC: 16 µg/mL
Staphylococcus aureus [3]
  MIC: ≥ 1020 µg/mL
Candida albicans
  MIC: 212 µg/mL (≈ 1370 µM)
Escherichia coli [4]
  MIC: 512 µg/mL (≈ 3320 µM)
Staphylococcus aureus [5]
  MIC: ≥ 1020 µg/mL
Staphylococcus aureus [6]
  MIC: ≥ 1020 µg/mL
[7]
  MIC: 32 µg/mL (≈ 207 µM)

## COc1cc2oc(-c3ccc(O)cc3)c(OC)c(=O)c2c(O)c1OC [PENDULETIN]
Staphylococcus aureus [30]
  MIC: 256 µg/mL (≈ 743 µM)
Staphylococcus aureus [31]
  fractional inhibitory concentration index (FICI): 0.079

## Cc1ccc(C(C)C)c(O)c1 [THYMOL]
[24]
  MIC: 16 µg/mL
[25]
  MIC: 25.4 µg/mL
Staphylococcus aureus [26]
  MIC: 256 µg/mL (≈ 1700 µM)
[27]
  MIC: 32 µg/mL
[28]
  MIC: 64 µg/mL
Staphylococcus aureus [29]
  MIC: 256 µg/mL (≈ 1700 µM)

## CC1(C)CC[C@]2(C)CC[C@]3(C)C(=CC[C@@H]4[C@@]5(C)CC[C@H](O)C(C)(C)[C@@H]5CC[C@]43C)[C@@H]2C1 [beta-AMYRIN]
Escherichia coli [8]
  MIC: 203 µg/mL
[9]
  MIC: 406 µg/mL
